These results are taken from patent US20180346505A1, “MONONUCLEOTIDES HAVING A BIOREVERSIBLE DISULFIDE GROUP” (priority 2014, published 2018).

The structures appear in SMILES notation. Read-outs that look alike come from different tables or passages of the source.

One data set deals with Huh-7 cells. As to the kind of experiment: Toxicity by CytoTox-1 cell proliferation assay (TC50) and selectivity index. In kind it is cell-based. The conditions noted are these: TC50 by CytoTox-1 cell proliferation assay over replicon EC50, Huh-7 cells. How it is done:
(§1) All the replicon assays were luciferase based in Huh-7 cells, either in stable format (GT1b and GT1a) or by transient transfection by electroporation (chimeric and mutant replicons). For a standard HCV replicon assay, stable or transiently transfected Huh-7 cells were seeded in 96-well plates (5,000 cells/well), cultured in DMEM containing 10% FBS, and incubated at 37° C., 5% CO2. On the following day, test compounds were diluted with assay media and added to the appropriate wells (final DMSO concentration in the cell culture medium was 0.5%). Assay reference positive control was included in each run to ensure assay performance. Cells were incubated at 37° C., 5% CO2 for 72 hours, at which time the cells were still sub-confluent. The antiviral activity was determined by measuring replicon reporter firefly luciferase activity using Bright Glo kit in accordance with the protocol provided by the supplier (Promega). The toxicity of the test compounds was assessed by CytoTox-1 cell proliferation assay (Promega). The half maximal effective concentration (EC50) and the half maximal toxic concentration (TC50) values were calculated using the GraphPad Prism software.
On the technique in general: In antiviral work, replicon cells carry a viral genome segment that copies itself.

A further data set has as its system GT1b (Con1) HCV replicon. The experiment in a line: HCV replicon assay, wild type GT1b (Con1), luciferase based, stable format. The conditions noted are these: Huh-7 cells. In kind it is cell-based, hepatitis C virus. How it is done:
(§2) The antiviral activity of the test compounds was assessed in the wild type GT1b (Con1), GT1a (H77), and GT1b/2a, GT1b/3a, GT1b/4a and GT1b/5a NS5B chimeric replicons, as well as the NS5B mutant replicons listed in Table 2a and 2b.
as §1

Data set [1] has as its system GT1b/3a NS5B chimeric replicon. As to the kind of experiment: HCV replicon assay, GT1b/3a NS5B chimeric replicon, transient transfection. The data set is classed as cell-based, hepatitis C virus. As to the method: as §2
To generate HCV NS5B chimeric replicons, the GT1 b replicon was used as a backbone with the NS5B gene replaced with the NS5B gene of GT2a, GT3a, GT4a and GT5a derived from clinical isolates. These NS5B genes were cloned into the GT1b backbone and were confirmed by sequencing.
as §1

Data set [2] can be described thus: Nucleoside phosphoester stability in simulated gastric fluid. In kind it is in vitro ADME. The conditions noted are these: simulated gastric fluid pH 1.2, 2 μM, 37° C. As to the method: Test compounds at 2 μM were incubated at 37° C. with simulated gastric fluid (SGF, 0.2% (w/v) sodium chloride in 0.7% (v/v) hydrochloric acid, deionized water, 0.3% pepsin (w/v), pH 1.2). Duplicate samples were used. Samples were removed at 0, 15, 30, 60, 120, 360 and 1440 min, immediately mixed with cold acetonitrile containing internal standard (IS), and stored at −80° C. before analysis. Omeprazole was used as a positive control. Samples were analyzed by LC/MS/MS method, and disappearance of test compound was assessed by comparison of peak area ratios of analyte/IS and reported as % test compound remaining at each time point.

Data set [3] can be described thus: Nucleoside phosphoester stability in simulated intestinal fluid. The data set is classed as in vitro ADME. The conditions noted are these: simulated intestinal fluid pH 6.8, 2 μM, 37° C. How it is done: Test compounds at 2 μM were incubated at 37° C. with simulated intestinal fluid (SIF), which contains 0.68% (w/v) monobasic potassium phosphate and 1% (w/v) pancreatin in ultra-pure water (pH 6.8). Duplicate samples were used. Samples were removed at 0, 15, 30, 60, 120, 360 and 1440 min, immediately mixed with cold acetonitrile containing an internal standard (IS), and stored at −80° C. before analysis. Chlorambucil was used as a positive control. Samples were analyzed by a LC/MS/MS method, and disappearance of test compound was assessed by comparison of peak area ratios of analyte/IS and reported as % test compound remaining at each time point.

Where [4] appears, read: Hepatitis C virus, GT1B, Huh-7, 72 h.
Where [5] appears, read: Hepatitis C virus, Huh-7, 72 h, read-out: GT3a EC50, GT1b/3a NS5B chimeric replicon, Huh-7 cells, luciferase, 72 hours.
Where [6] appears, read: read-out: GT3a EC50, GT1b/3a NS5B chimeric replicon, Huh-7 cells, luciferase, 72 hours.

Turning to `CC(C)(CCO)SSc1ccccc1CCOP1(=O)OC[C@H]2O[C@@H](n3ccc(=O)[nH]c3=O)[C@](C)(F)[C@@H]2O1` (some centres unmarked) [Compound 18A], in the data set on Huh-7 cells, the “Selectivity Index (TC50/EC50)” value is greater than 200. The EC50 with GT1b (Con1) HCV replicon (setting [4]) came out at 50 nM.

With `CC(C)(C)SSCCCCOP1(=O)OC[C@H]2O[C@@H](n3ccc(=O)[nH]c3=O)[C@](C)(F)[C@@H]2O1` (single isomer, unassigned) [Compound 6B], the “Selectivity Index (TC50/EC50)” value with Huh-7 cells was greater than 14. In the data set with GT1b (Con1) HCV replicon (72 hours), this compound returned an EC50 of 730 nM.

Turning to `CC(C)(C)SSc1ccccc1CCOP1(=O)OC[C@H]2O[C@@H](n3ccc(N)nc3=O)[C@](C)(O)[C@@H]2O1` (single isomer, unassigned) [Compound 10A], the EC50 came to 41 nM in data set [1] (setting [5]) and 40 nM in the data set on GT1b (Con1) HCV replicon (setting [4]). In addition, the “Selectivity Index (TC50/EC50)” value in the data set on Huh-7 cells is recorded as greater than 500.

As to `CC(C)(C)SSc1ccccc1CCOP1(=O)OC[C@H]2O[C@@H](n3ccc(N)nc3=O)[C@](C)(O)[C@@H]2O1` (single isomer, unassigned) [Compound 10B], the EC50 (in data set [1] (setting [6]); with GT1b (Con1) HCV replicon (72 hours)) was 21 nM throughout. The “Selectivity Index (TC50/EC50)” value in the data set with Huh-7 cells is greater than 500.

As for `COc1ccc2[nH]c([S+]([O-])Cc3ncc(C)c(OC)c3C)nc2c1` (centres unmarked) [Omeprazole, reference compound], the “% Remaining” value in data set [2] (0 min) is reported as 100.00%; in data set [2] (15 min), 79.48%; in data set [2] (30 min) it was 66.64%; in data set [2] (60 min) it was 34.79%; in data set [2] (120 min), 33.00%; in data set [2] (360 min), 6.17%. In data set [2] (1440 min), the “% Remaining” value is on record as 1.24%.

As to `CC(C)(C)SSc1ccccc1CCOP1(=O)OC[C@H]2O[C@@H](n3cnc4c(N)nc(N)nc43)[C@](C)(O)[C@@H]2O1` (single isomer, unassigned) [Compound 16B], the values for the EC50 (in data set [1] (setting [6]); in the data set on GT1b (Con1) HCV replicon (72 hours)) were 5 nM and 40 nM, respectively. Further, in the data set on Huh-7 cells, the “Selectivity Index (TC50/EC50)” value is reported as greater than 250.

Regarding `CC(C)(C)SSc1ccccc1CCOP1(=O)OC[C@H]2O[C@@H](n3cnc4c(N)nc(N)nc43)[C@](C)(O)[C@@H]2O1` (single isomer, unassigned) [Compound 16A], the EC50 turned out to be 6 nM in data set [1] (setting [5]) and 20 nM with GT1b (Con1) HCV replicon (setting [4]). The “Selectivity Index (TC50/EC50)” value in the data set with Huh-7 cells is on record as greater than 500.

Regarding `CC(C)(C)SSCCCCOP1(=O)OC[C@H]2O[C@@H](n3ccc(=O)[nH]c3=O)[C@](C)(F)[C@@H]2O1` (single isomer, unassigned) [Compound 6A], in the data set with Huh-7 cells, the “Selectivity Index (TC50/EC50)” value is greater than 12. Further, the EC50 in the data set with GT1b (Con1) HCV replicon (setting [4]) is 840 nM.

Consider `CC(C)(C)SSc1ccccc1CCOP1(=O)OC[C@H]2O[C@@H](n3ccc(=O)[nH]c3=O)[C@](C)(O)[C@@H]2O1` (some centres unmarked) [Compound 8A], for which the EC50 in data set [1] (setting [5]) was 6 nM; with GT1b (Con1) HCV replicon (setting [4]), 10 nM. In the data set with Huh-7 cells, the “Selectivity Index (TC50/EC50)” value is greater than 500.

Take `CC(C)(C)SSc1ccccc1CCOP1(=O)OC[C@H]2O[C@@H](n3ccc(=O)[nH]c3=O)[C@](C)(F)[C@@H]2O1` (some centres unmarked) [Compound 7B]: the figures for the EC50 (in data set [1] (setting [5]); with GT1b (Con1) HCV replicon (setting [4])) were 14 nM and 20 nM, respectively. Moreover, the “Selectivity Index (TC50/EC50)” value in the data set on Huh-7 cells was greater than 500.

In the case of `O=C(O)CCCc1ccc(N(CCCl)CCCl)cc1` [Chlorambucil, reference compound], the “% Remaining” value is reported as 100.00% in data set [3] (0 min); 81.31% in data set [3] (15 min); 64.39% in data set [3] (30 min); 34.82% in data set [3] (60 min); 5.08% in data set [3] (120 min); 0.00% in data set [3] (360 min). Further, in data set [3] (1440 min), the “% Remaining” value was 0.00%.
